Data from patent publication US9908919B2, “Cyclic apelin derivatives for the treatment of heart failure” (priority 2013, dated 2018).
Where a SMILES comes first, the peptide text is derived from it.

How the values were obtained:
[1] = in vitro; settings: rat, plasma
[2] = Plasma stability assay (LC-MS); assay type: in vitro ADME; settings: male, Sprague-Dawley; Table 3; heparinized rat plasma, 37° C., LC-MS percent remaining; read-out: Plasma stability t½
Description: Working solution: 1 mg/mL test article is prepared in Milli-Q water
Extraction solution: Methanol:Acetonitrile:Water (1:1:1) with 0.1% Formic Acid and 400 ng/mL Glyburide.
Plasma: Male Sprague-Dawley rat plasma (with sodium heparin), purchased from Bioreclamation LLC (Liverpool, N.Y.).
Test article was prepared in one of the following biological matrices: heparinized rat plasma, heparinized rat whole blood or lung homogenate. The plasma and whole blood sample was prepared at 5000 ng/mL by adding 5 uL of 1 mg/mL Working solution to 995 uL of rat plasma or whole blood. Lung homogenate samples were prepared by diluting lung homogenate to 1 mg/ml protein concentration with phosphate buffered saline (PBS), followed by addition of 5 uL Working solution to 995 uL diluted lung homogenate. The samples were incubated at 37° C. with gentle shaking (65˜75 rpm) in a water bath incubator. At times 0 min, 5 min, 15 min, 30 min, 60 min, 120 and 240 min, 25 uL aliquots of incubation samples were transferred to 96-well plate and immediately protein precipitated using 150 uL of Extraction solution. After completion of incubation experiment, the sample plate was centrifuged at 4000 rpm at 4° C. for 10 minutes. Afterwards, a pipetting device (Tecan Temo) was used to transfer the supernatants to another plate and add 50 uL of water to all samples. The plate was vortexed prior to LC-MS analysis. […]

[3] = rat

Row | Structure (SMILES) | half-life [1] [h] | half-life at 5000 ng/mL [2] [h] | Surrogate Activity based Plasma stability t½ [3] [h]
1 | CCCC[C@@H](NC(=O)[C@@H]1CCCN1C(=O)[C@@H]1CSSCC[C@@H](NC(=O)[C@H](CC(C)C)NC(=O)[C@H](CCCNC(=N)N)NC(=O)[C@@H]2CCCN2C(=O)[C@H](CCCNC(=N)N)NC(=O)[C@@H]2CCC(=O)N2)C(=O)N[C@@H](Cc2c[nH]cn2)C(=O)N[C@@H](CCCCN)C(=O)N1)C(=O)N1CCC[C@@H]1C(=O)N[C@H](Cc1ccccc1)C(=O)O [Example 7, pE-R-P-R-L-(D-hC)*-H-K-C*-P-(D-Nle)-p-f-OH] (HELM PEPTIDE1{[Glp].R.P.R.L.[O=C([C@@H](CCS[*:3])N[*:1])[*:2]].H.K.C.P.[CCCC[C@@H](N[*:1])C(=O)[*:2]].[dP].[dF]}$PEPTIDE1,PEPTIDE1,6:R3-9:R3$$$V2.0) | 0.867 |  | 
2 | CC(C)C[C@H](NC(=O)[C@H](CCCNC(=N)N)NC(=O)[C@@H]1CCCN1C(=O)[C@H](CCCNC(=N)N)NC(=O)[C@@H]1CCC(=O)N1)C(=O)N[C@@H]1CSSC[C@@H](C(=O)N2CCC[C@H]2C(=O)N[C@H](Cc2ccccc2)C(=O)N[C@H](C)C(=O)N[C@H](Cc2ccccc2)C(=O)O)NC(=O)[C@H](CCCCN)NC(=O)[C@H](Cc2c[nH]cn2)NC1=O [Example 6, pE-R-P-R-L-c*-H-K-C*-P-f-a-f-OH] (HELM PEPTIDE1{[Glp].R.P.R.L.[dC].H.K.C.P.[dF].[dA].[dF]}$PEPTIDE1,PEPTIDE1,6:R3-9:R3$$$V2.0) | 0.833 |  | 
3 | CC(C)C[C@@H]1NC(=O)[C@H](CCCNC(=N)N)NC(=O)[C@H](NC(=O)[C@H](CCCNC(=N)N)NC(=O)[C@@H]2CCC(=O)N2)CSSC[C@@H](C(=O)N[C@@H](Cc2c[nH]cn2)C(=O)N[C@@H](CCCCN)C(=O)NCC(=O)N2CCC[C@H]2C(=O)N[C@H](Cc2ccccc2)C(=O)N[C@H](C)C(=O)N[C@H](Cc2ccccc2)C(=O)O)NC1=O [Example 4, pE-R-c*-R-L-C*-H-K-G-P-f-a-f-OH] (HELM PEPTIDE1{[Glp].R.[dC].R.L.C.H.K.G.P.[dF].[dA].[dF]}$PEPTIDE1,PEPTIDE1,3:R3-6:R3$$$V2.0) | 1.43 |  | 
4 | CCCC[C@@H](NC(=O)[C@@H]1CCCN1C(=O)CNC(=O)[C@H](CCCCN)NC(=O)[C@H](Cc1c[nH]cn1)NC(=O)[C@@H]1CSSC[C@H](NC(=O)[C@H](CCCNC(=N)N)NC(=O)[C@@H]2CCC(=O)N2)C(=O)N[C@@H](CCCNC(=N)N)C(=O)N[C@@H](CC(C)C)C(=O)N1)C(=O)NCCc1ccccc1 [Example 3, pE-R-C*-R-L-C*-H-K-G-P-(D-Nle)-NH(Phenethyl)] (HELM PEPTIDE1{[Glp].R.C.R.L.C.H.K.G.P.[CCCC[C@@H](N[*:1])C(=O)[*:2]].[c1ccc(CCN[*:1])cc1]}$PEPTIDE1,PEPTIDE1,3:R3-6:R3$$$V2.0) | 20.1 |  | 
5 | CCCC[C@@H]1NC(=O)[C@@H]2CCCN2C(=O)CNC(=O)[C@H](CCCCN)NC(=O)[C@H](Cc2c[nH]cn2)NC(=O)[C@@H](NC(=O)[C@H](CC(C)C)NC(=O)[C@H](CCCNC(=N)N)NC(=O)[C@@H]2CCCN2C(=O)[C@H](CCCNC(=N)N)NC(=O)[C@@H]2CCC(=O)N2)CSSC[C@@H](C(=O)O)NC(=O)[C@@H]2CCCN2C1=O [Example 8, pE-R-P-R-L-C*-H-K-G-P-Nle-P-C*-OH] (HELM PEPTIDE1{[Glp].R.P.R.L.C.H.K.G.P.[Nle].P.C}$PEPTIDE1,PEPTIDE1,6:R3-13:R3$$$V2.0) | > 16.7 | 2.42 | >16.67
